{"source": "patent US12187723B2", "about": "(BRISTOL-MYERS SQUIBB COMPANY, priority 2019, dated 2025)", "key": {"human TLR8": {"target": "T1, human TLR8 (Homo sapiens, UniProt Q9NR97)", "T1 construct": "host or cells: HEK-Blue cells", "T1 sequence (Q9NR97 27-1041)": "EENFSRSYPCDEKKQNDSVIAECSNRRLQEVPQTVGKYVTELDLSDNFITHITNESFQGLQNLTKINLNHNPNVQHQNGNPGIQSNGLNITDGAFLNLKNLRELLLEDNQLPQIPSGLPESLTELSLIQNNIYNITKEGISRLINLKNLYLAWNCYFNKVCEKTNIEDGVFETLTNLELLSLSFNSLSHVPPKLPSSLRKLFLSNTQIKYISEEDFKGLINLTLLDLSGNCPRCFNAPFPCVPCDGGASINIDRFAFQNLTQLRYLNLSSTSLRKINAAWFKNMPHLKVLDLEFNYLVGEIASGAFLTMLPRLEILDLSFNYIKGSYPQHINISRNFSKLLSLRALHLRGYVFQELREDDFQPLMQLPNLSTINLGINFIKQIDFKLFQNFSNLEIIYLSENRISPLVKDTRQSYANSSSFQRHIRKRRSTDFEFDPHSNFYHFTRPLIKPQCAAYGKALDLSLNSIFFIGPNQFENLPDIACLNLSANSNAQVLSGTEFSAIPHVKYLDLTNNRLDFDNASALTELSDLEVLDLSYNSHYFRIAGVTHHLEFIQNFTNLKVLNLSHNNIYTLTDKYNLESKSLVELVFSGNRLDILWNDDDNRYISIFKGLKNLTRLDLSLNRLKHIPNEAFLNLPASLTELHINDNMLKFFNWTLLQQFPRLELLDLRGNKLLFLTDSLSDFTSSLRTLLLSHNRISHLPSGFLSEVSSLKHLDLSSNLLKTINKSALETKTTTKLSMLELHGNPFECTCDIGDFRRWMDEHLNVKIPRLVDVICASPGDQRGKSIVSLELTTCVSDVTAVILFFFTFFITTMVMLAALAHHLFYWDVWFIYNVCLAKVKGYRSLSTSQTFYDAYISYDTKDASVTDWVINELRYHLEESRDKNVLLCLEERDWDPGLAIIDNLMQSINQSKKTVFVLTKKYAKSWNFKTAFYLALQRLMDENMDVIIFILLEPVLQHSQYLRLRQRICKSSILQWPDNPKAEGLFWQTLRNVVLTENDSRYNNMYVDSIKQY", "assay": "TLR8 inhibition reporter assay (HEK-Blue SEAP)", "assay_type": "cell-based", "conditions": "HEK-Blue cells overexpressing human TLR8, R848 15.9 μM, 22 hour incubation", "outline": "(§1)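 Dose–response from 0.05 nM to 50 μM was run in HEK-Blue human TLR7, TLR8 and TLR9 reporter cells. After 30 min at room temperature with compound, ligand was added (TLR7 gardiquimod 7.5 μM; TLR8 R848 15.9 μM; TLR9 ODN2006 5 nM) and SEAP measured next day, at 22 h.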"}, "human TLR9": {"target": "T2, human TLR9 (Homo sapiens, UniProt Q9NR96)", "T2 construct": "host or cells: HEK-Blue cells", "T2 sequence (Q9NR96 26-1032)": "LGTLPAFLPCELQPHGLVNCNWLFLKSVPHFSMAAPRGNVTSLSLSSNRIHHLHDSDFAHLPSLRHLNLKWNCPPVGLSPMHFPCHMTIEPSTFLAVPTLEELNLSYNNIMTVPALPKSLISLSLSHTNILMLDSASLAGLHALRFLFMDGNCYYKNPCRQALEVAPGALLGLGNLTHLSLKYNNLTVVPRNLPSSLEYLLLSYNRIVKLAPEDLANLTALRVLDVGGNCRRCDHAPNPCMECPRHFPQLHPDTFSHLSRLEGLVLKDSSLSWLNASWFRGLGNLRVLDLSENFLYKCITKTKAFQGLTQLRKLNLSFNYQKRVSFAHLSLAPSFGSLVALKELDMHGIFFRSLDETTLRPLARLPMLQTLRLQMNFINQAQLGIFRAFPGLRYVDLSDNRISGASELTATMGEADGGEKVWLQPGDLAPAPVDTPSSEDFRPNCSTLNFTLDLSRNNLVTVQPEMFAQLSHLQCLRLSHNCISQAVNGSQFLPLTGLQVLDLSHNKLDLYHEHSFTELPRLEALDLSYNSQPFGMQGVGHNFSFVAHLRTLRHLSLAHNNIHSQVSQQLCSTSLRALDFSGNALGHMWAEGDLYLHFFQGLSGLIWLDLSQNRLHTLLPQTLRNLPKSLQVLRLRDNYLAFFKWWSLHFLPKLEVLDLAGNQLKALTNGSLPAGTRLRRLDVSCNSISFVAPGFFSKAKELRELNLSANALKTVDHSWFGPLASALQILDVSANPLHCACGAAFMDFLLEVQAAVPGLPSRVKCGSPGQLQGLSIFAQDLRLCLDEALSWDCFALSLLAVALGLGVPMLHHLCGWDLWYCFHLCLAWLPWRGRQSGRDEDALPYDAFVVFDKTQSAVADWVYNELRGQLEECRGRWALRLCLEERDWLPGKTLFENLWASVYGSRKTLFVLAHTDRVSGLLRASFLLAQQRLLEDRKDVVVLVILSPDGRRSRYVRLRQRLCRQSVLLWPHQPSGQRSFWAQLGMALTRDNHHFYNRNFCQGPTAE", "assay": "TLR9 inhibition reporter assay (HEK-Blue SEAP)", "assay_type": "cell-based", "conditions": "HEK-Blue cells overexpressing human TLR9, ODN2006 5 nM, 22 hour incubation", "outline": "as §1"}}}
{"smiles": "COc1cc(-c2cc3[nH]c(=O)n([C@@H]4CCCN(C5COC5)C4)c3cc2C(C)C)cn2ncnc12", "note": "[Example 135, (R)-6-isopropyl-5-(8-methoxy-[1,2,4]triazolo[1,5-a]pyridin-6-yl)-1-(1-(oxetan-3-yl)piperidin-3-yl)-1,3-dihydro-2H-benzo[d]imidazol-2-one]", "values": [{"measurement": "IC50", "setting": "human TLR8", "result": 20, "unit": "nM"}, {"measurement": "IC50", "setting": "human TLR9", "result": "> 50000", "unit": "nM"}]}
{"smiles": "COc1cc(-c2cc3[nH]c(=O)n([C@@H]4CCCN(CC(=O)N(C)C)C4)c3cc2C)cn2ncnc12", "note": "[Example 99, (R)-2-(3-(5-(8-methoxy-[1,2,4]triazolo[1,5-a]pyridin-6-yl)-6-methyl-2-oxo-2,3-dihydro-1H-benzo[d]imidazol-1-yl)piperidin-1-yl)-N,N-dimethylacetamide]", "values": [{"measurement": "IC50", "setting": "human TLR8", "result": 354, "unit": "nM"}, {"measurement": "IC50", "setting": "human TLR9", "result": "> 50000", "unit": "nM"}]}
{"smiles": "Cc1cc2c(cc1-c1cc(C)c3ncnn3c1)[nH]c(=O)n2[C@@H]1CCCN(C(=O)CN(C)C)C1", "note": "[Example 104, (R)-1-(1-(dimethylglycyl)piperidin-3-yl)-6-methyl-5-(8-methyl-[1,2,4]triazolo[1,5-a]pyridin-6-yl)-1,3-dihydro-2H-benzo[d]imidazol-2-one]", "values": [{"measurement": "IC50", "setting": "human TLR8", "result": 47.6, "unit": "nM"}, {"measurement": "IC50", "setting": "human TLR9", "result": 1450, "unit": "nM"}]}
{"smiles": "Cc1cc(-c2ccc3c(c2)[nH]c(=O)n3C2CCN(C(=O)CN(C)C)CC2)cn2ncnc12", "note": "[Example 102, 1-(1-(dimethylglycyl)piperidin-4-yl)-5-(8-methyl-[1,2,4]triazolo[1,5-a]pyridin-6-yl)-1,3-dihydro-2H-benzo[d]imidazol-2-one]", "values": [{"measurement": "IC50", "setting": "human TLR8", "result": "> 3130", "unit": "nM"}, {"measurement": "IC50", "setting": "human TLR9", "result": 3210, "unit": "nM"}]}
{"smiles": "CCC(CC)CN1CCC[C@@H](n2c(=O)[nH]c3cc(-c4cn5ncnc5c(C)c4C)c(C(C)C)cc32)C1", "note": "[Example 151, (R)-5-(7,8-dimethyl-[1,2,4]triazolo[1,5-a]pyridin-6-yl)-1-(1-(2-ethylbutyl)piperidin-3-yl)-6-isopropyl-1,3-dihydro-2H-benzo[d]imidazol-2-one]", "values": [{"measurement": "IC50", "setting": "human TLR8", "result": 21.7, "unit": "nM"}, {"measurement": "IC50", "setting": "human TLR9", "result": 17700, "unit": "nM"}]}
{"smiles": "COc1cc(-c2cc3[nH]c(=O)n(C4CCN(C5COC5)CC4)c3cc2C(C)C)cn2ncnc12", "note": "[Example 157, 6-isopropyl-5-(8-methoxy-[1,2,4]triazolo[1,5-a]pyridin-6-yl)-1-(1-(oxetan-3-yl)piperidin-4-yl)-1,3-dihydro-2H-benzo[d]imidazol-2-one]", "values": [{"measurement": "IC50", "setting": "human TLR8", "result": 5.42, "unit": "nM"}, {"measurement": "IC50", "setting": "human TLR9", "result": "> 50000", "unit": "nM"}]}
{"smiles": "COc1cc(-c2cc3[nH]c(=O)n([C@@H]4CCCN(C(C)C)C4)c3cc2C(F)(F)F)cn2ncnc12", "note": "[Example 111, (R)-1-(1-isopropylpiperidin-3-yl)-5-(8-methoxy-[1,2,4]triazolo[1,5-a]pyridin-6-yl)-6-(trifluoromethyl)-1,3-dihydro-2H-benzo[d]imidazol-2-one]", "values": [{"measurement": "IC50", "setting": "human TLR8", "result": 12.6, "unit": "nM"}, {"measurement": "IC50", "setting": "human TLR9", "result": 9940, "unit": "nM"}]}
{"smiles": "COc1cc(-c2cc3[nH]c(=O)n([C@@H]4CCCN(C5CCOCC5)C4)c3cc2C(C)C)cn2ncnc12", "note": "[Example 143, (R)-6-isopropyl-5-(8-methoxy-[1,2,4]triazolo[1,5-a]pyridin-6-yl)-1-(1-(tetrahydro-2H-pyran-4-yl)piperidin-3-yl)-1,3-dihydro-2H-benzo[d]imidazol-2-one]", "values": [{"measurement": "IC50", "setting": "human TLR8", "result": 3.24, "unit": "nM"}, {"measurement": "IC50", "setting": "human TLR9", "result": 10200, "unit": "nM"}]}
{"smiles": "CCN1CCC(n2c(=O)[nH]c3cc(-c4cc(C)c5ncnn5c4)cc(C)c32)CC1", "note": "[Example 108, 1-(1-ethylpiperidin-4-yl)-7-methyl-5-(8-methyl-[1,2,4]triazolo[1,5-a]pyridin-6-yl)-1,3-dihydro-2H-benzo[d]imidazol-2-one]", "values": [{"measurement": "IC50", "setting": "human TLR8", "result": 83.1, "unit": "nM"}, {"measurement": "IC50", "setting": "human TLR9", "result": 1160, "unit": "nM"}]}
{"smiles": "COc1cc(-c2cc3[nH]c(=O)n([C@H]4CCCN(CC(C)C)C4)c3cc2C(C)C)cn2ncnc12", "note": "[Example 129, (S)-1-(1-isobutylpiperidin-3-yl)-6-isopropyl-5-(8-methoxy-[1,2,4]triazolo[1,5-a]pyridin-6-yl)-1,3-dihydro-2H-benzo[d]imidazol-2-one]", "values": [{"measurement": "IC50", "setting": "human TLR8", "result": 4, "unit": "nM"}, {"measurement": "IC50", "setting": "human TLR9", "result": 3690, "unit": "nM"}]}
{"smiles": "CCC(CC)CN1CCC(n2c(=O)[nH]c3cc(-c4cc(OC)c5ncnn5c4)c(C(C)C)cc32)CC1", "note": "[Example 165, 1-(1-(2-ethylbutyl)piperidin-4-yl)-6-isopropyl-5-(8-methoxy-[1,2,4]triazolo[1,5-a]pyridin-6-yl)-1,3-dihydro-2H-benzo[d]imidazol-2-one]", "values": [{"measurement": "IC50", "setting": "human TLR8", "result": 7.03, "unit": "nM"}, {"measurement": "IC50", "setting": "human TLR9", "result": 8720, "unit": "nM"}]}
